Experimental data: paper PMC7265341, “Quantifying CDK inhibitor selectivity in live cells” (Nature Communications, 2020)
Like-named read-outs stand apart in the source and are kept apart here.

How the values were obtained:
CDK1/Cyclin E1 = CDK1/Cyclin E1 (Homo sapiens, UniProt P06493); assay: NanoBRET live-cell target engagement, CDK1-NanoLuc/Cyclin E1 in HEK-293; type: binding; conditions: CDK1/E1, 10µM
CDK2/Cyclin E1 = CDK2/Cyclin E1 (Homo sapiens, UniProt P24941); assay: NanoBRET live-cell target engagement, CDK2-NanoLuc/Cyclin E1 in HEK-293; type: binding; conditions: CDK2/E1
CDK4/Cyclin D1 = CDK4/Cyclin D1 (Homo sapiens, UniProt P11802); assay: NanoBRET live-cell target engagement, NanoLuc-CDK4/Cyclin D1 in HEK-293; type: binding; conditions: CDK4/D1
CDK5/CDK5R1 = CDK5/CDK5R1 (Homo sapiens, UniProt Q00535); assay: NanoBRET live-cell target engagement, CDK5-NanoLuc/CDK5R1 in HEK-293; type: binding; conditions: CDK5/CDK5R1, 10µM
CDK6/Cyclin D1 = CDK6/Cyclin D1 (Homo sapiens, UniProt Q00534); assay: NanoBRET live-cell target engagement, NanoLuc-CDK6/Cyclin D1 in HEK-293; type: binding; conditions: CDK6/D1
CDK8/Cyclin C = CDK8/Cyclin C (Homo sapiens, UniProt P49336); assay: NanoBRET live-cell target engagement, NanoLuc-CDK8/Cyclin C in HEK-293; type: binding; conditions: CDK8/C, 10µM
CDK9/Cyclin K = CDK9/Cyclin K (Homo sapiens, UniProt P50750); assay: NanoBRET live-cell target engagement, NanoLuc-CDK9/Cyclin K in HEK-293; type: binding; conditions: CDK9/K, 10µM
Sequence of CDK9/Cyclin K (P50750 whole entry): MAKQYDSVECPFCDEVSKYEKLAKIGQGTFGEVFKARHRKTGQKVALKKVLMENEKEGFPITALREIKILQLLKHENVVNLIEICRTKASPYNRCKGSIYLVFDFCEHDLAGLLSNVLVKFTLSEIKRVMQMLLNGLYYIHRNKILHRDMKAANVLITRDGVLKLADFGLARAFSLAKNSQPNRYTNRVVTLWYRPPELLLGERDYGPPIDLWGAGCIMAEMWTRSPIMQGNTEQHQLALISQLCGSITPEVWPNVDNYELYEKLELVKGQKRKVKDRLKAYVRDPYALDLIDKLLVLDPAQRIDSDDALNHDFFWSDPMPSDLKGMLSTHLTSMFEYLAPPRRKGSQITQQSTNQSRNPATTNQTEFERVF
Sequence of CDK9/Cyclin K (O75909 whole entry partner): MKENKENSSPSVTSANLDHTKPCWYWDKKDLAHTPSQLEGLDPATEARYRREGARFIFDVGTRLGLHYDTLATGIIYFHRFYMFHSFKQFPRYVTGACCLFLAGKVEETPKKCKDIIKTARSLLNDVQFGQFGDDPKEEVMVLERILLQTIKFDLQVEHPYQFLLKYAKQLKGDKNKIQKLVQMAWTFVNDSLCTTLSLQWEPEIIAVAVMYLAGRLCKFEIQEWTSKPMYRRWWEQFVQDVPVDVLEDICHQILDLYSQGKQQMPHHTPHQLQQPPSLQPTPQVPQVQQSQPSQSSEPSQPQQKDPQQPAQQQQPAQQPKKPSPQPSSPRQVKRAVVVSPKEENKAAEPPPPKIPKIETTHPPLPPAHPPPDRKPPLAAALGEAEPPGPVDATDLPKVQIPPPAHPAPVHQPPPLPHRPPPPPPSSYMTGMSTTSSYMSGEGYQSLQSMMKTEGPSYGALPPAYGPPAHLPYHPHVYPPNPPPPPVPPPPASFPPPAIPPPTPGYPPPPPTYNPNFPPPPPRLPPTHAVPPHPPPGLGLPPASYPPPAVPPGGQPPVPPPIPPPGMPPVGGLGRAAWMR

CDK11A/Cyclin L2 = target: T1, CDK11A/Cyclin L2 (Homo sapiens, UniProt Q9UQ88); assay: NanoBRET live-cell target engagement, CDK11A-NanoLuc/Cyclin L2 in HEK-293; type: binding; conditions: 10µM
T1 sequence (Q9UQ88 1-783): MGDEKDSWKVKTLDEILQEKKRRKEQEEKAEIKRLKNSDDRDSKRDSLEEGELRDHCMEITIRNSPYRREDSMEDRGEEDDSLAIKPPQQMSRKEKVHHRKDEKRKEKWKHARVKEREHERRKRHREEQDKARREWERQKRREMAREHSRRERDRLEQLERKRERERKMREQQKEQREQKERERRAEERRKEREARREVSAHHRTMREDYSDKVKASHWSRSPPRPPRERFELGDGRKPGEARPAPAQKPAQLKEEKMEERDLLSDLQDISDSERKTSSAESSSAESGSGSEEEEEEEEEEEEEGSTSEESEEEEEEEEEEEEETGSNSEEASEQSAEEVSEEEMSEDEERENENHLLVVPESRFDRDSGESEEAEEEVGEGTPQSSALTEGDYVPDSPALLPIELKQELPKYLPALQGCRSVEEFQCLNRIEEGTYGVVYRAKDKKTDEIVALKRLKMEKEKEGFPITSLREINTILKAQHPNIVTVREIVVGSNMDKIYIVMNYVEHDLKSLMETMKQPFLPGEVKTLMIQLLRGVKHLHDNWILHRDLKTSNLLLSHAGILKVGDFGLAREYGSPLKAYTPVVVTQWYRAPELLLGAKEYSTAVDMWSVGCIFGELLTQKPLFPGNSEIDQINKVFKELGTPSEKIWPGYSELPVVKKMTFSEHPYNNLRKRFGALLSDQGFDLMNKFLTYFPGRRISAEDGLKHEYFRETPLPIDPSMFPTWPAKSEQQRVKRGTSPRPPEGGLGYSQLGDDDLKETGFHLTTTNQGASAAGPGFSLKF

CDK11B/Cyclin L2 = CDK11B/Cyclin L2 (Homo sapiens, UniProt P21127); assay: NanoBRET live-cell target engagement, CDK11B-NanoLuc/Cyclin L2 in HEK-293; type: binding; conditions: 10µM
CDK12/Cyclin K = CDK12/Cyclin K (Homo sapiens, UniProt Q9NYV4); assay: NanoBRET live-cell target engagement, CDK12-NanoLuc/Cyclin K in HEK-293; type: binding; conditions: 10µM
Sequence of CDK12/Cyclin K (Q9NYV4 1-1481 isoform Q9NYV4-2): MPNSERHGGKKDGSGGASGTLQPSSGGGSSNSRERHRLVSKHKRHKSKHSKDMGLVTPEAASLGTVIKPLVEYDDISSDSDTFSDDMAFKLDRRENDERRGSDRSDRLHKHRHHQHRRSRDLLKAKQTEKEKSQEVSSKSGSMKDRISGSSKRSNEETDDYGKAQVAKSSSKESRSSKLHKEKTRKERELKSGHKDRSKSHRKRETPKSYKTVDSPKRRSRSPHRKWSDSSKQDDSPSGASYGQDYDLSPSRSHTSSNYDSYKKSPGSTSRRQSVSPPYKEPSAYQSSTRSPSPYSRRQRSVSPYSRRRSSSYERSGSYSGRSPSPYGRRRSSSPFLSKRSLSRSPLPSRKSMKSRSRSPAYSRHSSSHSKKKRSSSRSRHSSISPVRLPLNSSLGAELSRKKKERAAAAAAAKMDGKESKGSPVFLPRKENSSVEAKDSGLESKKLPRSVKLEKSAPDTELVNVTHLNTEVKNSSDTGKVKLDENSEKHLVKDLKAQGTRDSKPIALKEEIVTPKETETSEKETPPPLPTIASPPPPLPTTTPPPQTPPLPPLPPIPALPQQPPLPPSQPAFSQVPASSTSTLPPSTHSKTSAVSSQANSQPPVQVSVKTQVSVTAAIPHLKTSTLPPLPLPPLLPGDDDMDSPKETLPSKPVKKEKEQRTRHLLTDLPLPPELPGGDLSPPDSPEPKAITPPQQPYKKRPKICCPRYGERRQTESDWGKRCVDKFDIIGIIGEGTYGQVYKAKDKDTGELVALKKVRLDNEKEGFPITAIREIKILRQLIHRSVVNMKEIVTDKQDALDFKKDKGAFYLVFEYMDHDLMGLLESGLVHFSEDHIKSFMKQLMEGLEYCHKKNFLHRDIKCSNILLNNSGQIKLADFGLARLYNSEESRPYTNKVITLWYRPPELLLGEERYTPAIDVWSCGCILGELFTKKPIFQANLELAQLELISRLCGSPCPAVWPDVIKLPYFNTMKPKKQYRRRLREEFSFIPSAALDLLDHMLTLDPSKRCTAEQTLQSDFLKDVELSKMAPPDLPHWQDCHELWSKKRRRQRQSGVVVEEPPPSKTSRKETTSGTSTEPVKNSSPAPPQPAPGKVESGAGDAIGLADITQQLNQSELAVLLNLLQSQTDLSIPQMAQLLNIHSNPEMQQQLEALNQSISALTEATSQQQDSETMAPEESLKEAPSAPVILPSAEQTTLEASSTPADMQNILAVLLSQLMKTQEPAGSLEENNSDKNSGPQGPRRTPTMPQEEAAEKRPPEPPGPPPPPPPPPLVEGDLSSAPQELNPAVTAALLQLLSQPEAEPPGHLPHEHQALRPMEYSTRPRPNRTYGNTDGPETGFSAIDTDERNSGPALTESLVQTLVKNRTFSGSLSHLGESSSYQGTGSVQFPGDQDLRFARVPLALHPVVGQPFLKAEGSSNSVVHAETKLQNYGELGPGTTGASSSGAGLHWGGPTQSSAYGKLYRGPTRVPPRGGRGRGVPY
Sequence of CDK12/Cyclin K (O75909 whole entry partner): as the sequence (O75909 whole entry partner) above

CDK13/Cyclin K = CDK13/Cyclin K (Homo sapiens, UniProt Q14004); assay: NanoBRET live-cell target engagement, CDK13-NanoLuc/Cyclin K in HEK-293; type: binding; conditions: CDK13/K, 10µM
CDK14/Cyclin Y = CDK14/Cyclin Y (Homo sapiens, UniProt O94921); assay: NanoBRET live-cell target engagement, CDK14-NanoLuc/Cyclin Y in HEK-293; type: binding; conditions: for IC50: CDK14/Y
CDK15/Cyclin Y = CDK15/Cyclin Y (Homo sapiens, UniProt Q96Q40); assay: NanoBRET live-cell target engagement, NanoLuc-CDK15/Cyclin Y in HEK-293; type: binding; conditions: for IC50: CDK15/Y
CDK16/Cyclin Y = CDK16/Cyclin Y (Homo sapiens, UniProt Q00536); assay: NanoBRET live-cell target engagement, CDK16-NanoLuc/Cyclin Y in HEK-293; type: binding; conditions: for IC50: CDK16/Y
Sequence of CDK16/Cyclin Y (Q00536 whole entry): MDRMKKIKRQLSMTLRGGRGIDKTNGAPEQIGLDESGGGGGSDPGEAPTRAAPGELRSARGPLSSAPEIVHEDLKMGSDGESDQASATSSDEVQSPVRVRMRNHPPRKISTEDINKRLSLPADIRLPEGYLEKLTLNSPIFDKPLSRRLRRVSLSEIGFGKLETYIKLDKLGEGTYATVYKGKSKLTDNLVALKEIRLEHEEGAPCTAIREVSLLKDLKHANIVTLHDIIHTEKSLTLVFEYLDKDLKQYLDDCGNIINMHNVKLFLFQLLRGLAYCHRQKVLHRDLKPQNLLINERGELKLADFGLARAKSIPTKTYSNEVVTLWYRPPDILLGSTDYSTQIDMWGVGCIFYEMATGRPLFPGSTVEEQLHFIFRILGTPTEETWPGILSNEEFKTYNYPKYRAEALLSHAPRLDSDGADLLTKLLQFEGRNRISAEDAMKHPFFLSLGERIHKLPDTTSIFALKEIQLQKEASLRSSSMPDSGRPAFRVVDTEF
Sequence of CDK16/Cyclin Y (Q8ND76 whole entry partner): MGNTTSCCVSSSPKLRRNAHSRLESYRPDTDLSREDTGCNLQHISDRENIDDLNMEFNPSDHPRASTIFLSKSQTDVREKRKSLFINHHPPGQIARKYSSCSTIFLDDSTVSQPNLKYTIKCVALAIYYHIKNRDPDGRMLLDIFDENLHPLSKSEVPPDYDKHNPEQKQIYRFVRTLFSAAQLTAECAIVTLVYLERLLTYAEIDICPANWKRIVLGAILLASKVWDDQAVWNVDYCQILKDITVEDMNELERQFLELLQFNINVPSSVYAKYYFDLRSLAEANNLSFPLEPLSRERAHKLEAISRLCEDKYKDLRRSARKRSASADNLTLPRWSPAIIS

CDK17/Cyclin Y = CDK17/Cyclin Y (Homo sapiens, UniProt Q00537); assay: NanoBRET live-cell target engagement, CDK17-NanoLuc/Cyclin Y in HEK-293; type: binding; conditions: 10µM
CDK18/Cyclin Y = CDK18/Cyclin Y (Homo sapiens, UniProt Q07002); assay: NanoBRET live-cell target engagement, CDK18-NanoLuc/Cyclin Y in HEK-293; type: binding; conditions: 10µM
Sequence of CDK18/Cyclin Y (Q07002 whole entry): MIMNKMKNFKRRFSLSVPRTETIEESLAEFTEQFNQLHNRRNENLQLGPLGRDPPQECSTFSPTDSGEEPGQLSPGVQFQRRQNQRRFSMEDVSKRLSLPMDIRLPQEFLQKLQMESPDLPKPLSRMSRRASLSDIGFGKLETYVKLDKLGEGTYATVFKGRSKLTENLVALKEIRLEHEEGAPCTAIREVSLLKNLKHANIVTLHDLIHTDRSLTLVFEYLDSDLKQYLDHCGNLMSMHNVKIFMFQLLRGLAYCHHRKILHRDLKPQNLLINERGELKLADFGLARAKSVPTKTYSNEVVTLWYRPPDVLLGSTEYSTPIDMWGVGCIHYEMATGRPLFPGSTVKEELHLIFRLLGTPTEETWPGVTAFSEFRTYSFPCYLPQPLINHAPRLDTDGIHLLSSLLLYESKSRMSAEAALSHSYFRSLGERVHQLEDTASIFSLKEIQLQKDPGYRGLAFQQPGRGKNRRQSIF
Sequence of CDK18/Cyclin Y (Q8ND76 whole entry partner): as the sequence (Q8ND76 whole entry partner) above

CDK20/Cyclin H = CDK20/Cyclin H (Homo sapiens, UniProt Q8IZL9); assay: NanoBRET live-cell target engagement, NanoLuc-CDK20/Cyclin H in HEK-293; type: binding; conditions: 10µM
CDK19/Cyclin C = CDK19/Cyclin C (Homo sapiens, UniProt Q9BWU1); assay: NanoBRET live-cell target engagement, NanoLuc-CDK19/Cyclin C in HEK-293; conditions: 10µM
Sequence of CDK19/Cyclin C (Q9BWU1 whole entry): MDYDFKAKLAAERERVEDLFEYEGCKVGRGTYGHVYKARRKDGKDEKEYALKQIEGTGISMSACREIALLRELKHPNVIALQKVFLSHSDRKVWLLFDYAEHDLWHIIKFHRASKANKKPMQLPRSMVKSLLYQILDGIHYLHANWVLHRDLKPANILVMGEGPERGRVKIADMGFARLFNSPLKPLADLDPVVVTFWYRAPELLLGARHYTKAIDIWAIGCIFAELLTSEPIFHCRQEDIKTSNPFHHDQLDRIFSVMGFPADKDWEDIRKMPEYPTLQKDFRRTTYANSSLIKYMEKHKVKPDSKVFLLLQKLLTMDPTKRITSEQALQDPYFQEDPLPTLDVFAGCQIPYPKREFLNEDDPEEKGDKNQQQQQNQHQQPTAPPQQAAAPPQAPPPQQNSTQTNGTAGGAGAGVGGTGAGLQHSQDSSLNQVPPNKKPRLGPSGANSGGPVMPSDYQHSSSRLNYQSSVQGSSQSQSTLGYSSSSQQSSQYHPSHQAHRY
Sequence of CDK19/Cyclin C (P24863 whole entry partner): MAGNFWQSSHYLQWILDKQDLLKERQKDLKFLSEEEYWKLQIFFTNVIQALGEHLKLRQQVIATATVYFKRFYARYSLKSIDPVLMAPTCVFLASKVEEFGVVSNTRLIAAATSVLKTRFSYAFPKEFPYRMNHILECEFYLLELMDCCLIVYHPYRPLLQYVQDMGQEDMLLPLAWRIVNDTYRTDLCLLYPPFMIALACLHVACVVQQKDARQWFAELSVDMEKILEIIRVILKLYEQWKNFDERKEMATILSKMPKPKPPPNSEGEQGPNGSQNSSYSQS

CDK10/Cyclin L2 = CDK10/Cyclin L2 (Homo sapiens, UniProt Q15131); assay: NanoBRET live-cell target engagement, CDK10-NanoLuc/Cyclin L2 in HEK-293; conditions: 10µM
Sequence of CDK10/Cyclin L2 (Q15131 whole entry): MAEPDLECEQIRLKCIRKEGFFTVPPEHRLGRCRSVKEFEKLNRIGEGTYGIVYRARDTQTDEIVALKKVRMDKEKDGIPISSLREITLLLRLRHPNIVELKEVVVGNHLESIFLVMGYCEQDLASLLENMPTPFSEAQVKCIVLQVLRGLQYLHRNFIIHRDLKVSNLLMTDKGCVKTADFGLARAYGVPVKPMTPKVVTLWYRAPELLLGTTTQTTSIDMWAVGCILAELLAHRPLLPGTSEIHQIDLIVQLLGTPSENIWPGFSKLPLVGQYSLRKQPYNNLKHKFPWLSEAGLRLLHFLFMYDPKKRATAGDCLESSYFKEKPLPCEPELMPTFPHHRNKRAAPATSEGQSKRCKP

[1] = average of replicates, read-out: Inhibition at 10µM (%) Average
[2] = read-out: Inhibition at 10µM (%) Replicate 1
[3] = read-out: Inhibition at 10µM (%) Replicate 2
[4] = n=3 average ± SEM, n=2 average to 2 significant figures, read-out: IC50 (nM) Average*
[5] = read-out: IC50 (nM) Replicate 1
[6] = read-out: IC50 (nM) Replicate 2
[7] = read-out: IC50 (nM) Replicate 3

C[C@H]1CC[C@H](n2c3cnccc3c3cnc(Nc4ccc5c(n4)CCN(C(=O)CO)C5)nc32)CC1 [AMG 925]
inhibition at 10 µM (CDK1/Cyclin E1; [1]): 34.5%
inhibition at 10 µM (CDK1/Cyclin E1; [2]): 45.4%
inhibition at 10 µM (CDK1/Cyclin E1; [3]): 23.6%
inhibition at 10 µM (CDK2/Cyclin E1; [1]): 63.9%
inhibition at 10 µM (CDK2/Cyclin E1; [2]): 40.8%
inhibition at 10 µM (CDK2/Cyclin E1; [3]): 87%
IC50 (CDK2/Cyclin E1; [4]): 310 ± 70 nM
IC50 (CDK2/Cyclin E1; [5]): 171 nM
IC50 (CDK2/Cyclin E1; [6]): 400 nM
IC50 (CDK2/Cyclin E1; [7]): 370 nM
inhibition at 10 µM (CDK4/Cyclin D1; [1]): 92.7%
inhibition at 10 µM (CDK4/Cyclin D1; [2]): 97.7%
inhibition at 10 µM (CDK4/Cyclin D1; [3]): 87.7%
IC50 (CDK4/Cyclin D1; [4]): 6 ± 2 nM
IC50 (CDK4/Cyclin D1; [5]): 3.2 nM
IC50 (CDK4/Cyclin D1; [6]): 4.9 nM
IC50 (CDK4/Cyclin D1; [7]): 11 nM
inhibition at 10 µM (CDK5/CDK5R1; [1]): 22.1%
inhibition at 10 µM (CDK5/CDK5R1; [2]): 24.7%
inhibition at 10 µM (CDK5/CDK5R1; [3]): 19.6%
inhibition at 10 µM (CDK6/Cyclin D1; [1]): 99.1%
inhibition at 10 µM (CDK6/Cyclin D1; [2]): 98.6%
inhibition at 10 µM (CDK6/Cyclin D1; [3]): 99.5%
IC50 (CDK6/Cyclin D1; [4]): 7 ± 3 nM
IC50 (CDK6/Cyclin D1; [5]): 2.5 nM
IC50 (CDK6/Cyclin D1; [6]): 3.9 nM
IC50 (CDK6/Cyclin D1; [7]): 13 nM
inhibition at 10 µM (CDK8/Cyclin C; [1]): 12.6%
inhibition at 10 µM (CDK8/Cyclin C; [2]): 13.8%
inhibition at 10 µM (CDK8/Cyclin C; [3]): 11.5%
inhibition at 10 µM (CDK9/Cyclin K; [1]): 39.8%
inhibition at 10 µM (CDK9/Cyclin K; [2]): 12.7%
inhibition at 10 µM (CDK9/Cyclin K; [3]): 67%
inhibition at 10 µM (CDK11A/Cyclin L2; read-out: Inhibition at 10µM (%) Average, CDK11a/L2, average of replicates): 6.7%
inhibition at 10 µM (CDK11A/Cyclin L2; read-out: Inhibition at 10µM (%) Replicate 1, CDK11a/L2): -0.9%
inhibition at 10 µM (CDK11A/Cyclin L2; read-out: Inhibition at 10µM (%) Replicate 2, CDK11a/L2): 14.4%
inhibition at 10 µM (CDK11B/Cyclin L2; read-out: Inhibition at 10µM (%) Average, CDK11b/L2, average of replicates): 8.5%
inhibition at 10 µM (CDK11B/Cyclin L2; read-out: Inhibition at 10µM (%) Replicate 1, CDK11b/L2): 5.1%
inhibition at 10 µM (CDK11B/Cyclin L2; read-out: Inhibition at 10µM (%) Replicate 2, CDK11b/L2): 11.9%
inhibition at 10 µM (CDK12/Cyclin K; read-out: Inhibition at 10µM (%) Average, CDK12/K, average of replicates): 8%
inhibition at 10 µM (CDK12/Cyclin K; read-out: Inhibition at 10µM (%) Replicate 1, CDK12/K): 7.8%
inhibition at 10 µM (CDK12/Cyclin K; read-out: Inhibition at 10µM (%) Replicate 2, CDK12/K): 8.2%
inhibition at 10 µM (CDK13/Cyclin K; [1]): -2.5%
inhibition at 10 µM (CDK13/Cyclin K; [2]): 3.8%
inhibition at 10 µM (CDK13/Cyclin K; [3]): -8.8%
IC50 (CDK14/Cyclin Y; [4]): 600 ± 200 nM
IC50 (CDK14/Cyclin Y; [5]): 217 nM
IC50 (CDK14/Cyclin Y; [6]): 690 nM
IC50 (CDK14/Cyclin Y; [7]): 766 nM
inhibition at 10 µM (CDK14/Cyclin Y; read-out: Inhibition at 10µM (%) Average, CDK14/Y, average of replicates): 32.4%
inhibition at 10 µM (CDK14/Cyclin Y; read-out: Inhibition at 10µM (%) Replicate 1, CDK14/Y): 39%
inhibition at 10 µM (CDK14/Cyclin Y; read-out: Inhibition at 10µM (%) Replicate 2, CDK14/Y): 25.8%
IC50 (CDK15/Cyclin Y; [4]): 820 ± 50 nM
IC50 (CDK15/Cyclin Y; [5]): 842 nM
IC50 (CDK15/Cyclin Y; [6]): 720 nM
IC50 (CDK15/Cyclin Y; [7]): 901 nM
inhibition at 10 µM (CDK15/Cyclin Y; read-out: Inhibition at 10µM (%) Average, CDK15/Y, average of replicates): 55.3%
inhibition at 10 µM (CDK15/Cyclin Y; read-out: Inhibition at 10µM (%) Replicate 1, CDK15/Y): 50.5%
inhibition at 10 µM (CDK15/Cyclin Y; read-out: Inhibition at 10µM (%) Replicate 2, CDK15/Y): 60.1%
IC50 (CDK16/Cyclin Y; [4]): 200 ± 100 nM
IC50 (CDK16/Cyclin Y; [5]): 103 nM
IC50 (CDK16/Cyclin Y; [6]): 420 nM
IC50 (CDK16/Cyclin Y; [7]): 188 nM
inhibition at 10 µM (CDK16/Cyclin Y; read-out: Inhibition at 10µM (%) Replicate 1, CDK16/Y): 64.2%
inhibition at 10 µM (CDK16/Cyclin Y; read-out: Inhibition at 10µM (%) Replicate 2, CDK16/Y): 56.2%
inhibition at 10 µM (CDK17/Cyclin Y; read-out: Inhibition at 10µM (%) Average, CDK17/Y, average of replicates): 43.6%
inhibition at 10 µM (CDK17/Cyclin Y; read-out: Inhibition at 10µM (%) Replicate 1, CDK17/Y): 42.5%
inhibition at 10 µM (CDK17/Cyclin Y; read-out: Inhibition at 10µM (%) Replicate 2, CDK17/Y): 44.7%
inhibition at 10 µM (CDK18/Cyclin Y; read-out: Inhibition at 10µM (%) Average, CDK18/Y, average of replicates): 28.7%
inhibition at 10 µM (CDK18/Cyclin Y; read-out: Inhibition at 10µM (%) Replicate 1, CDK18/Y): 11.9%
inhibition at 10 µM (CDK18/Cyclin Y; read-out: Inhibition at 10µM (%) Replicate 2, CDK18/Y): 45.6%
inhibition at 10 µM (CDK20/Cyclin H; read-out: Inhibition at 10µM (%) Replicate 1, CDK20/H): 24.8%
inhibition at 10 µM (CDK20/Cyclin H; read-out: Inhibition at 10µM (%) Replicate 2, CDK20/H): 6.8%
inhibition at 10 µM (CDK19/Cyclin C; read-out: Inhibition at 10µM (%) Average, CDK19/C, average of replicates): 16.1%
inhibition at 10 µM (CDK19/Cyclin C; read-out: Inhibition at 10µM (%) Replicate 1, CDK19/C): 17.8%
inhibition at 10 µM (CDK19/Cyclin C; read-out: Inhibition at 10µM (%) Replicate 2, CDK19/C): 14.4%
inhibition at 10 µM (CDK10/Cyclin L2; read-out: Inhibition at 10µM (%) Average, CDK10/L2, average of replicates): 2.1%
inhibition at 10 µM (CDK10/Cyclin L2; read-out: Inhibition at 10µM (%) Replicate 1, CDK10/L2): 1.6%
inhibition at 10 µM (CDK10/Cyclin L2; read-out: Inhibition at 10µM (%) Replicate 2, CDK10/L2): 2.6%
